For 2 molecules, Ki, EC50 and Activity results are on record in ChEMBL document CHEMBL4715703, “Engineering of a Novel Simplified Human Insulin-Like Peptide 5 Agonist” (J Med Chem, 2016).

For assay [1], the target named is T1, Relaxin-3 receptor 2 (Homo sapiens, UniProt Q8TDU9). Description: Displacement of europium-labeled Eu(A)-mINSL5 from human RXFP4 expressed in CHO-K1 cells. Type of assay: cell-based.
Assay [2] concerns the target T1, Relaxin-3 receptor 2. Description: Agonist activity at human RXFP4 expressed in CHO-K1 cells assessed as reduction in forskolin-induced cAMP production by pCRE beta-galactosidase reporter assay. The format is functional, cell-based.
Assay [3] addresses T1, Relaxin-3 receptor 2. Description: Agonist activity at human RXFP4 expressed in CHO-K1 cells assessed as induction of ERK1/2 phosphorylation incubated for 5 mins by Alpha-screen sure-fire assay. Type of assay: cell-based. The conditions noted are these: filed as agonist. Background: Bead proximity is the source of the signal in Alpha formats.

Molecules are shown by their SMILES. The source made the active and inactive calls. The calls are words filed in the database; no cut-off is given here. Where a SMILES comes first, the peptide text is derived from it. Bridges are numbered along the chain shown (N, C = ends). Roman numbers before positions name the chains, in order.

T1 sequence (Q8TDU9 whole entry): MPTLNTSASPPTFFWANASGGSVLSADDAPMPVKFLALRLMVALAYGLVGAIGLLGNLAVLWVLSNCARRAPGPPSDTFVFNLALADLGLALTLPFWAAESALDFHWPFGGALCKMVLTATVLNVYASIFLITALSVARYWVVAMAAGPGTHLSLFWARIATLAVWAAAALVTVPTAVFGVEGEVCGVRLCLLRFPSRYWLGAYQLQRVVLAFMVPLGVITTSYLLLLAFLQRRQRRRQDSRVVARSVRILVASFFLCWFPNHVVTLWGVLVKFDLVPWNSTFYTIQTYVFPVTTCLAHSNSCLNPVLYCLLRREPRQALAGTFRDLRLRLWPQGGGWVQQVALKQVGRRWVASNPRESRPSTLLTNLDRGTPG

The Ki is a measure of affinity in units of concentration, obtained from inhibition or displacement. Low readings indicate a stronger hold on the target, high ones a looser hold on the target. Broadly, the EC50 is the concentration at which the effect is half-maximal. Take `CC[C@H](C)[C@@H]1NC(=O)[C@H](Cc2ccc(O)cc2)NC(=O)[C@H]([C@@H](C)CC)NC(=O)[C@H](C(C)C)NC(=O)[C@H]([C@@H](C)O)NC(=O)[C@H](CCCNC(=N)N)NC(=O)[C@H]([C@@H](C)CC)NC(=O)[C@H](Cc2ccc(O)cc2)NC(=O)[C@H](CCC(=O)O)NC(=O)[C@H](CC(C)C)NC(=O)CNC(=O)[C@@H](NC(=O)[C@H](CC(C)C)NC(=O)[C@H](CCCNC(=N)N)NC(=O)[C@@H](NC(=O)[C@H](CO)NC(=O)[C@H](CCC(=O)O)NC(=O)[C@@H](N)CCCCN)C(C)C)CSSC[C@@H]2NC(=O)[C@@H](NC(=O)[C@H](CC(C)C)NC(=O)[C@@H](NC(=O)[C@H](CCC(N)=O)NC(=O)[C@H](CC(C)C)NC(=O)[C@H](CC(=O)O)NC(=O)C3CCC(=O)N3)[C@@H](C)O)CSSC[C@H](NC(=O)CNC(=O)[C@H](CCC(=O)O)NC(=O)[C@H]([C@@H](C)O)NC2=O)C(=O)N[C@@H](CO)C(=O)N[C@@H](CCSC)C(=O)N[C@@H]([C@@H](C)O)C(=O)N[C@@H](CC(=O)O)C(=O)N[C@@H](CC(C)C)C(=O)N[C@@H](CO)C(=O)N[C@@H](C)C(=O)N[C@@H](CC(C)C)C(=O)N[C@H](C(=O)O)CSSC[C@@H](C(=O)N[C@@H](C)C(=O)N[C@@H](CO)C(=O)N[C@@H](CO)C(=O)N[C@@H](CCCNC(=N)N)C(=O)N[C@@H](Cc2c[nH]c3ccccc23)C(=O)O)NC1=O` (stereo partly specified): the Ki at Relaxin-3 receptor 2 [1] amounted to 33.1 nM. Further, at Relaxin-3 receptor 2 [2], the concentration for a half-maximal effect (EC50) was determined as 4.57 nM. The outcome at Relaxin-3 receptor 2 [3] was Active.
In the same order, the values of `CC[C@H](C)[C@@H]1NC(=O)[C@H](Cc2ccc(O)cc2)NC(=O)[C@H]([C@@H](C)CC)NC(=O)[C@H](C(C)C)NC(=O)[C@H]([C@@H](C)O)NC(=O)[C@H](CCCNC(=N)N)NC(=O)[C@H]([C@@H](C)CC)NC(=O)[C@H](Cc2ccc(O)cc2)NC(=O)[C@H](CCC(=O)O)NC(=O)[C@H](CC(C)C)NC(=O)CNC(=O)[C@@H](NC(=O)[C@H](CC(C)C)NC(=O)[C@H](CCCNC(=N)N)NC(=O)[C@@H](NC(=O)[C@H](CO)NC(=O)[C@H](CCC(=O)O)NC(=O)[C@@H](N)CCCCN)C(C)C)CSSC[C@H](N)C(=O)N[C@@H]([C@@H](C)O)C(=O)N[C@@H](CC(=O)O)C(=O)NCC(=O)N[C@@H](C)C(=O)N[C@@H](CO)C(=O)N[C@@H](CCSC)C(=O)N[C@@H](CCCCN)C(=O)N[C@@H](CC(=O)O)C(=O)N[C@@H](CC(C)C)C(=O)N[C@@H](CO)C(=O)N[C@@H](C)C(=O)N[C@@H](CC(C)C)C(=O)N[C@H](C(=O)O)CSSC[C@@H](C(=O)N[C@@H](C)C(=O)N[C@@H](CO)C(=O)N[C@@H](CO)C(=O)N[C@@H](CCCNC(=N)N)C(=O)N[C@@H](Cc2c[nH]c3ccccc23)C(=O)O)NC1=O` (I: H-KESVRLCGLEYIRTVIYICASSRW-OH / II: H-CTDGASMKDLSALC-OH; disulfide I:7-II:1, I:19-II:14) are 29.5 nM, 20.9 nM and “Active”.
